Substitutions are numbered along the chain they refer to. Where a name gives a salt, the structure may show the parent alone.
Key:
heme oxygenase-2 [1] = biological target: T1, heme oxygenase-2 (Homo sapiens, UniProt P30519, C265A/C282A); assay type: biochemical
T1 sequence (P30519 1-316 C265A/C282A): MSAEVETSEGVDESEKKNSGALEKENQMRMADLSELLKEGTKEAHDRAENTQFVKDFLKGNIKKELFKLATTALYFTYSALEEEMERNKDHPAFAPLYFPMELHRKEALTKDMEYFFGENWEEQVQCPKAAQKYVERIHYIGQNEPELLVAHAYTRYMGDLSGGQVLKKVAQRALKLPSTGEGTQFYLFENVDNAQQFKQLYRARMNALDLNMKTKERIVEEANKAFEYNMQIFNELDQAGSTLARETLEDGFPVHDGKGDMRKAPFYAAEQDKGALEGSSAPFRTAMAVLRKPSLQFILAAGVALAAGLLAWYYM

heme oxygenase-2 [2] = biological target: T2, heme oxygenase-2 (Homo sapiens, UniProt P30519); assay type: biochemical
T2 sequence (P30519 1-316): T1 sequence (P30519 1-316 C265A/C282A) with A265C, A282C

IC50 (heme oxygenase-2 [1]): 29 µM
IC50 (heme oxygenase-2 [2]): 20 µM
Structure (SMILES): c1ccc(CCn2c(CN3CCCC3)nc3ccccc32)cc1 [QC-2350, 1-(2-phenylethyl)-2-(pyrrolidin-1-ylmethyl)-1H-benzimidazole dihydrochloride]

Reference: article PMC5075677 (Medical Gas Research, 2016)
